This is an account of results in US8440627B2, “G protein coupled receptor agonists and antagonists and methods of use” (Tufts Medical Center, Inc., priority 2004, dated 2013).

Test [1] deals with human platelets. In words: Human platelet aggregation to thrombin. It is filed as cell-based. To be noted: thrombin greater than 11 nM; RWJ-56110 supplemented with PAR1-blocking antibody plus bivalirudin.
Test [2] deals with CXCR4 (Mus musculus, UniProt P70658).
In test [3] the test system is mice subjected to cecal ligation and puncture (CLP). In words: CLP sepsis: BAL neutrophils and lung histology. It counts as in vivo. The protocol:
Adult respiratory […] syndrome (ARDS) results from excessive neutrophil infiltration into lungs and their activation, leading to fibrin deposition. Sepsis can cause ARDS, which has a high lethality. Panels A and B: Mice were sacrificed 24 hours after CLP and BAL was performed. Neutrophils were counted after staining with Giemsa, TNF was measured by ELISA. *p<0.02 vs. vehicle treated group. C Lung histology. Mice were sacrificed 48 hours after CLP.
Blockade of CXCR1/2 signaling with pepducins reversed several criteria of established SIRS in the septic mice. First, the effect of CXCR1/2 pepducins on systemic KC levels, the mouse IL-8 ortholog was examined. In untreated mice, KC levels rose over the 16 h period after CLP and remained elevated for at least 48 h. Following administration of the CXCR1/2 pepducins at the 8 h time point, the systemic KC levels rapidly dropped and remained low thereafter. Many of the untreated CLP mice became tachypnic and hypoxemic as early as 24 h and this correlated well with mortality. During sepsis, bacterial endotoxin stimulates lung epithelia to secrete IL-8 which recruits and activates leukocytes. The resulting neutrophil margination eventually leads to lung damage. The number of neutrophils in the bronchioalveolar lavage (BAL) fluid of untreated mice increased by 100-fold as early as 4 h after CLP and then rose to 200-300 fold after 8 h. […]

Test [4] addresses T1, CXCR4 (Homo sapiens, UniProt P61073).
Target sequence in this assay (P61073 whole entry): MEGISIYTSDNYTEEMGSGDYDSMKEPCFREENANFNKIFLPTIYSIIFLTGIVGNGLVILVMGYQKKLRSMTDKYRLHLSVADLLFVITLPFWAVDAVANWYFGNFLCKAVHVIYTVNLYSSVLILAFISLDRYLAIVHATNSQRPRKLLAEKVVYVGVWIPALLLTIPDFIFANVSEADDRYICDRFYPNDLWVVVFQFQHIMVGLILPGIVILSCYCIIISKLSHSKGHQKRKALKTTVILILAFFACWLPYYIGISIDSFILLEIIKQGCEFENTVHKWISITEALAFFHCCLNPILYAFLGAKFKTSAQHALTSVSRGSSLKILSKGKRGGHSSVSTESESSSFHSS
Test [5] relates to mice subjected to cecal ligation and puncture (CLP). Briefly: CLP sepsis: plasma liver enzyme levels (AST, ALT). It counts as in vivo. To be noted: for plasma levels of ALT: 24 hours after CLP. On the procedure: Since organ failure determines the outcome of patients in SIRS, liver function was investigated. Mice were sacrificed 24 hours after CLP and plasma levels of ALT, an enzyme that increases with loss of liver function, were measured. In sham-treated mice, i.e., abdominal incision without cecal ligation and puncture, no elevation of ALT was observed.
Liver failure is a common sequalae of severe sepsis. Treatment with the CXCR1/2 pepducins right after CLP reduced liver damage as evidenced by decreases of 52-87% in liver enzyme levels (AST, ALT) whereas the CXCR4 pepducin, x4pal-i1, had no effect. When CXCR1/2 pepducin treatment was initiated 8 h after CLP, the rise in plasma AST and ALT levels were halted by the 16 h time point and then dropped to near normal levels.

The target of test [6] is T1, CXCR4. To be noted: CXCR4 co-expressed with CXCR1 or CXCR2.
Target sequence in this assay (P61073 whole entry, species assumed): as the sequence (P61073 whole entry) above
Test [7] relates to mice subjected to cecal ligation and puncture (CLP). In words: Cecal ligation and puncture (CLP) sepsis: survival and body weight. It is filed as in vivo. The protocol: The time point selected for treatment is at the induction of non-lethal sepsis by cecal ligation and puncture (CLP). After an initial dose of 2.5 mg/kg, 1 mg/kg pepducin (or vehicle) was injected into the mice subcutaneously each day for six days. *: Four mice out of the vehicle-treated group were sacrificed after six days; #: one mouse out of the groups treated with x1/2i1LCA10 pepducin was sacrificed on day 6, and all remaining surviving mice were sacrificed at 17 days. […] In the left panel, mice were treated with x1/2pal16, x1/2i1LCA10 or vehicle (20% DMSO) at the time point of CLP. In the right panel, mice were monitored for body weight every day.
There are only few reports where treatment of sepsis is sufficient, even after the onset of systemic inflammatory response syndrome. […] The time point selected for treatment is […] the induction of non-lethal sepsis by cecal ligation and puncture (CLP). […] In the right panel, mice were monitored for their body weight every day.
CLP was performed on 6 to 8 week old female CF-1 mice. […] In the left panel, mice were monitored for body weight every day. […]
The diagnosis of sepsis is often delayed and agents cannot be readily administered in a preventative mode, therefore pepducin treatment was withheld until 8 h after the CLP procedure. […]

The subject of test [8] is thioglycollate peritonitis model in mice. In words: Thioglycollate peritonitis model: leukocyte recruitment into the peritoneal cavity. It counts as in vivo. On the procedure:
Mice were injected with 1 mL of 3% thioglycollate i.p. Thioglycollate induces peritoneal macrophages to secret cytokines and leukocytes are then recruited into the peritoneal cavity. Pepducins were injected i.v. at the indicated doses. After 4 hours, cells were collected by peritoneal lavage, stained with Giemsa and counted under 40× magnification. N=60.
The effects of the CXCR1/2 and CXCR4 pepducins on neutrophil homeostasis under normal versus pro-inflammatory conditions in mice were evaluated. Leukocyte recruitment was first assessed in a thioglycollate peritonitis model.

Test [9] deals with healthy untreated mice. In words: Peripheral leukocyte counts in healthy mice. It is filed as in vivo. To be noted: sub-Q once per day 2.5 mg/kg day 1, 1.0 mg/kg days 2-6, one week. On the procedure:
(§1) The long-term effects of the chemokine pepducins on peripheral leukocyte counts were assessed in healthy untreated mice. Pepducins were injected once per day sub-Q (2.5 mg/kg day 1, 1.0 mg/kg days 2-6) and circulating leukocyte levels measured over a one week period. […] The effects of the chemokine pepducins on peripheral leukocyte count were quite similar in septic mice subjected to cecal ligation and puncture (CLP).

Test [10] concerns mice subjected to cecal ligation and puncture (CLP). In words: CLP sepsis: peripheral leukocyte count. It is filed as in vivo. The conditions noted are these: septic mice after CLP, once per day administration, blood 1-17 days.
Excerpt: It has been shown that SDF-1α and CXCR4 are involved in recruiting immature neutrophils from the bone marrow. High levels of CXCR4 expression and activation lead to homing of senescent neutrophils to the bone marrow, whereas chemokines acting on the CXCR2 receptors of neutrophils, i.e., KC, Gro-α or IL-8, lead to increased neutrophil mobilization. Blood was drawn 1, 3, 5, 7 and 17 days after CLP, and leukocytes were counted. An initial decrease in leukocytes in vehicle-treated mice was observed. […] This observation would match previous reports where either blocking of CXCR4 or stimulation of CXCR2 lead to neutrophilia in the peripheral blood of mice.
as §1

Test [11] shares this test system. Briefly: CLP sepsis: bleeding time, D-dimer, platelet counts (DIC). It counts as in vivo. The protocol: Systemic inflammatory responses, the derangement of coagulation and fibrinolysis in DIC is mediated by several pro-inflammatory cytokines. Changes in bleeding time and increases in D-dimer, which is a product of excessive counter-regulatory fibrinolysis, is a hallmark of disseminated intravascular coagulation, leading to widespread deposition of fibrin in the circulation, contributing to multi organ failure and death in septic patients. […] A. Bleeding time was measured 24 h after CLP and immediate onset of treatment. […] B. D-dimer levels were measured 48 hours after CLP. As a surrogate marker of the amount of fibrin deposition, D-dimer was increased after CLP, to a higher extent in vehicle-treated mice than in CXCR2 pepducin-treated mice. C. Depicts the bleeding time of mice that were treated 8 h after CLP. D. Depicts the D-dimer levels of mice treated 8 h after CLP.
Therefore, systemic platelet activation was observed by measuring platelet counts and D-dimer levels, a marker of the increased fibrin production and subsequent fibrinolysis that occurs during DIC. […] When the CXCR1/2 pepducin treatment was delayed until 8 h after the CLP procedure, D-dimer levels were still reduced by 60-70%.

In test [12] the test system is OVCAR-4 human ovarian cancer cells. Briefly: Chemotaxis assay (20 h, 48 blindwell microchemotaxis chamber) toward NIH3T3 conditioned media, OVCAR-4. It counts as cell-based. To be noted: OVCAR-4, NIH3T3 conditioned media, FIG. 27. On the procedure: (§2) Conditioned media was prepared from NIH3T3. Chemotaxis assays (20 h) were performed using a 48 blindwell microchemotaxis chamber (Neuroprobe) equipped with […] pore nitrocellulose filters for OVCAR-4 human ovarian cancer cells and MDA-MB-231 human breast cancer cells. Data is expressed as chemotaxis index which is the ratio between the distance of migration toward NIH3T3 conditioned media over migration toward RPMI medium alone.

Test [13] deals with MDA-MB-231 human breast cancer cells. In words: Chemotaxis assay (20 h, 48 blindwell microchemotaxis chamber) toward NIH3T3 conditioned media, MDA-MB-231. To be noted: MDA-MB-231, NIH3T3 conditioned media, FIG. 27. It is filed as cell-based. On the procedure: as §2
The mark [14] stands for this setting: thioglycollate i.p., pepducin i.v., 4 hours.

Ends that are not written are not given here.

CXCR4 (Mus musculus, UniProt P70658), sequence (P70658 whole entry): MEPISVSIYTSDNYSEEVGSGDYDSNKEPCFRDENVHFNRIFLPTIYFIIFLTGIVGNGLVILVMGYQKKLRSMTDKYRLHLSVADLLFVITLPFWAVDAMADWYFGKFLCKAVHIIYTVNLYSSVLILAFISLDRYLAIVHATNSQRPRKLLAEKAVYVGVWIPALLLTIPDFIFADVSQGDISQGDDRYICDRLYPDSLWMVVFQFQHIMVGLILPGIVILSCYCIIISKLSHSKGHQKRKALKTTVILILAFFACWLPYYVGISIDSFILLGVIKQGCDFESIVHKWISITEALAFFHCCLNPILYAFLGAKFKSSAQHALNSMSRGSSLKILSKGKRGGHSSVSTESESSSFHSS

Regarding `NCC[C@H](NC(=O)[C@H](Cc1ccc(F)c(F)c1)NC(=O)Nc1ccc2c(CN3CCCC3)cn(Cc3c(Cl)cccc3Cl)c2c1)C(=O)NCc1ccccc1` [RWJ-56110], in test [1], the “thrombin activation of PAR4-dependent aggregation” value is reported as “regained full activation”.

Regarding “CXCR1/CXCR2 i1 loop pepducin, sequence YSRVGRSVTD, lithocholate lipid modification (SEQ ID NO 20, 23) (also: lithocholate lipid modification) [x1/2i1LCA10]”, the “migration of leukocytes towards SDF-1α” value in test [2] and in test [4] was “does not inhibit migration” throughout. In test [3] (lungs harvested at 48 h after CLP), the “lung fibrin deposition (histology)” value was “significant protection against fibrin deposition”. Further, the “neutrophils in bronchioalveolar lavage (BAL) fluid” value in test [3] (treatment at 8 h after CLP) is listed as “rapid drop”. Besides, the “plasma levels of ALT” value in test [5] was “an increase was observed but it was significantly less compared to vehicle treated mice”. Also, in [6], the “inhibition of CXCR4” value is “does not inhibit CXCR4”. Moreover, the sepsis-induced mortality entry in test [7] (pepducin immediately after CLP, 2.5 mg/kg then 1 mg/kg until day 6) was “highly significant decrease”. In [8] (setting [14]), the “IC50, inhibition of transmigration of neutrophils into the peritoneal cavity” value came to 0.15 mg/kg. Moreover, in [8] (setting [14]), the “transmigration of neutrophils into the peritoneal cavity” value was “completely inhibited”. In addition, the peripheral leukocyte count result in [9] is listed as “neither x1/2pal-i3 nor x1/2LCA-i1 altered the leukocyte count”. The entries for the “peripheral blood leukocyte levels” value in [10] and in test [10] (listed as x1/2LCA-i1) were “remained in the normal range” and “within the normal range”, respectively. Also, the bleeding time result in test [11] (24 h after CLP, immediate onset of treatment) is “normal bleeding times”. Also, the D-dimer levels entry in [11] (48 hours after CLP) is “significant reductions”.

As to “CXCR4 i1 loop pepducin, CXCR4 antagonist; x4i1pal12 is MGYQKKLRSMTD with palmitate (SEQ ID NO 25) (also: palmitate) [x4pal-i1]”, the “chemotactic migration of ovarian cancer cells” value in test [12] is recorded as “block chemotactic migration”. For the same molecule, the “plasma levels of ALT” value in test [5] is “an increase in ALT”. In addition, in test [5] (treatment right after CLP), the “effect on liver damage, liver enzyme levels (AST, ALT)” value was “no effect”. Also, the effect on survival entry in test [7] (CLP mice) is “no effect on survival”. The “transmigration of neutrophils into the peritoneal cavity” value in test [8] (setting [14]) is reported as “substantial increase”. The “EC50, increase in peritoneal neutrophils” value in test [8] (thioglycollate peritonitis) is on record as about 0.1 mg/kg. The peripheral leukocyte count entry in test [9] is on record as “caused a leukocytosis”. Moreover, the “chemotactic migration of breast cancer cells” value in test [13] is reported as “block chemotactic migration”. The “peripheral blood leukocyte levels” value in test [10] is “accelerated leukocytosis on day 1 and leukopenia by day 7”; in test [10] (listed as x4i1pal12), “increased immediately, but decreased 5 days after CLP to very low levels”.

In the case of “x1/2pal-i1: I1-loop pepducin based on CXCR1/2; x1/2i1pal12 is ILYSRVGRSVTD with palmitate (SEQ ID NO 18, 21) (also: palmitate)”, the “chemotactic migration of ovarian cancer cells” value in test [12] is “block chemotactic migration”. In test [13], the “chemotactic migration of breast cancer cells” value was “block chemotactic migration”.
